SMILES strings stand for the structures.

This test addresses T1, human GlyT1c transporter (Homo sapiens, UniProt P48067).
T1 sequence (P48067 1-706): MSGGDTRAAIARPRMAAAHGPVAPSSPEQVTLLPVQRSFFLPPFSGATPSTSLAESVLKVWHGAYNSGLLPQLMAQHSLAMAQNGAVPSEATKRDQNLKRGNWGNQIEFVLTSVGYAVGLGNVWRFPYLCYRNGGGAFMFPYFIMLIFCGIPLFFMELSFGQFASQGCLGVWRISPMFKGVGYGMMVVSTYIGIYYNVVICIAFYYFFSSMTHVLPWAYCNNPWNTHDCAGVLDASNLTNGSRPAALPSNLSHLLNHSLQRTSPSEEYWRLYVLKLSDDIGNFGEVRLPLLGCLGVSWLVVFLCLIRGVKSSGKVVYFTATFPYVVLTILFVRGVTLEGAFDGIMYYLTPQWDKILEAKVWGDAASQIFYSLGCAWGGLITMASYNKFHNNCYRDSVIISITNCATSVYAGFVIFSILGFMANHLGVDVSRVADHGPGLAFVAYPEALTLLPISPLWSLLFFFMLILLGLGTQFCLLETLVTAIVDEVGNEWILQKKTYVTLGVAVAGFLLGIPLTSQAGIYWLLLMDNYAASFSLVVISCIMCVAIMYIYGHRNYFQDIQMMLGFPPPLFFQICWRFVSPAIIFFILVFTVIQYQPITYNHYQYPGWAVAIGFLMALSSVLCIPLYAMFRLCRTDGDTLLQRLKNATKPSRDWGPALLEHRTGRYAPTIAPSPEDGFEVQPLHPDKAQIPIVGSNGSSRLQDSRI
Briefly: Radioligand binding assays using recombinant CHO cell membranes expressing human GlyT1. Particulars: Ki, radioligand binding to human GlyT1c transporter-expressing CHO cell membranes.
Broadly, the Ki is a dissociation constant, usually derived from enzyme kinetics or from competition with a known ligand. Consider `Cn1cnc(S(=O)(=O)N2CC3CCCCC3(NC(=O)c3cccc(C(F)(F)F)c3Cl)C2)c1` (stereo not shown) [Example 870, 2-chloro-N-{2-[(1-methyl-1H-imidazol-4-yl)sulfonyl]octahydro-3aH-isoindol-3a-yl}-3-(trifluoromethyl)benzamide], for which the Ki was ≤ 100 nM.
The result for `Cn1cnc(S(=O)(=O)N2CC3CCCCC3(NC(=O)c3ccc(Cl)cc3Cl)C2)c1` (stereo not shown) [Example 871, 2,4-dichloro-N-{2-[(1-methyl-1H-imidazol-4-yl)sulfonyl]octahydro-3aH-isoindol-3a-yl}benzamide] reads ≤ 100 nM.
In the case of `Cn1cnc(S(=O)(=O)N2C[C@H](c3ccc(F)cc3)[C@@H](N3CCS(=O)(=O)CC3)C2)c1` [Example 864, 4-{(3R,4S)-4-(4-fluorophenyl)-1-[(1-methyl-1H-imidazol-4-yl)sulfonyl]pyrrolidin-3-yl}thiomorpholine 1,1-dioxide] it was ≤ 10000 nM.
The result for `Cn1cnc(S(=O)(=O)N2C[C@H](NC3CCc4ccccc43)[C@@H](C3OCCCO3)C2)c1` (stereo partly drawn) [Example 903, (3R,4S)-N-(2,3-dihydro-1H-inden-1-yl)-4-(1,3-dioxan-2-yl)-1-[(1-methyl-1H-imidazol-4-yl)sulfonyl]pyrrolidin-3-amine] reads ≤ 10 nM.

The values above are taken from patent US9650334B2 (AbbVie Deutschland GmbH & Co. KG, priority 2013, dated 2017).
